Measured values reported in patent publication EP3578180A1, “MODULATORS OF SERYL-TRNA SYNTHASE AND PHARMACEUTICAL COMPOSITIONS COMPRISING THE SAME FOR INCREASING CELL HYPOXIC TOLERANCE” (Centre National de la Recherche Scientifique (CNRS), priority 2018, dated 2019).
Like-named read-outs stand apart in the source and are kept apart here.

Legend:
PCT cells = assay: LIVE/DEAD cell viability of kidney cells under anoxia; type: cell-based, murine
Procedure: HT22 mouse hippocampal neuronal cells were cultured in Dulbecco's modified Eagle's medium (DMEM; Gibco) supplemented with 10% FBS (Gibco), 100U/ml streptomycin, 100U/ml penicillin at 37 °C in 5% CO2/95% air. Renal PCT cells were obtained from primary cultures of murine proximal tubule segments and cultured as previously described (Melis, N. et al. Targeting eIF5A Hypusination Prevents Anoxic Cell Death through Mitochondrial Silencing and Improves Kidney Transplant Outcome. J Am Soc Nephrol 28, 811-822, doi:10.1681/ASN.2016010012 (2017)). Hypoxic or anoxic conditions were created by maintaining cell cultures at 37°C in a sealed "Bug-Box" anaerobic workstation (Ruskin Technologies). Oxygen Glucose Deprivation (OGD) was induced on HT22 cells placing them in glucose-free Hepes balanced salt solution without glucose (HBSS: NaCl 116mM, KCl 5.4mM, CaCl2 1.8mM, MgSO4 0.8mM, NAH2PO4 1mM, NaHCO3 26.2mM,; pH 7.2-7.4) in an hypoxic chamber filled with 98.5% N2 and 1.5% CO2 at 37°C for 3h. Upon removal of the cultures from the chamber, the growth medium was changed back to normal medium.
The Fluorescent LIVE/DEAD® Cell Viability/Cytotoxicity Assay Kit (Invitrogen, France) was used on PCT cells (24-well plates) according to the manufacturer's protocol. Fluorescent micrographs were recorded using an observer D1 microscope (Zeiss).
150,000 PCT cells were seeded in Petri dishes and transfected 24 h later with 50 nM serRS pooled siRNAs (Sigma MISSION®esiRNA targeting mouse serRS: EMU081851) using Lipofectamine™ 3000 transfection reagent (Invitrogen). Cells were exposed to various experimental procedures 24-48 h post-transfection, as described in the text.

mice = assay: tMCAo stroke model, infarct volume (cresyl violet); type: in vivo; conditions: SerHX pretreatment, '15 mM serHX group'; 60 min tMCAo; 24 h post-reperfusion; Fig.3C
Procedure: Male 7-week old C57BL/6J mice (Janvier France Breeding) were housed in a temperature- and humidity-controlled animal facility with a 12-h light-dark cycle. Food and water were available ad libitum. All animal care and use were performed with in accordance to the policies of European Community Directive 86/609/EEC. All efforts were made to minimize animal suffering and the number of animals used.
tMCAO was performed 30 min after the final injection using a 6-0 coated filament (Doccol), as previously described (Bourourou, M., Heurteaux, C. & Blondeau, N. Alpha-linolenic acid given as enteral or parenteral nutritional intervention against sensorimotor and cognitive deficits in a mouse model of ischemic stroke. Neuropharmacology 108, 60-72, doi:10.1016/j.neuropharm.2016.04.040 (2016)). Control of tMCAo severity and reperfusion was evaluated monitoring the regional cerebral blood flow by laser-Doppler flowmetry. Infarct volume (mm^3) was mesured 24 h post-reperfusion on coronal frozen brain sections ([…]) stained by 1% cresyl violet in 0.25% acetic acid using a computer image analysis system.
Animals were randomly assigned to vehicle or serHX groups prepared for 3 experimental protocols. Protocol 1: Vehicle and serHX were administrated intraperitoneally (416 mM, 150µl IP) 48, 24, 2h before a 60min tMCAo. […]

**Q.** With C[C@@H]1C[C@@H]([C@H](O)CC2CC(=O)NC(=O)C2)C(=O)[C@@H](C)C1 [cycloheximide] as the compound, how does the living kidney cells (PCT cells) read?
**A.** The living kidney cells was 64%.

**Q.** And the “renal cell survival after 24 h of anoxia (in words)” value (PCT cells)?
**A.** The value was “increased renal cell survival”.

**Q.** Which living kidney cells (PCT cells; anoxia 24 h, <0.1% O2, cells treated with the inhibitor beforehand, CHX 1 to 10 pg/ml, Fig.1A) does the source give for NC(CO)C(=O)NO (centres unmarked) [serine hydroxamate] here?
**A.** The living kidney cells was 95%.

**Q.** What about the “reduction of infarct volumes compared with the vehicle group” value (mice) of the same compound?
**A.** The value was 30%.

**Q.** How did the “renal cell survival after 24 h of anoxia (in words)” value (PCT cells; anoxia 24 h, <0.1% O2, Fig.1A) turn out when N[C@@H](CO)C(=O)O [serine] was run?
**A.** The value was “no effect”.
